The text below walks through data of US8937050B2, “Methods and compositions for treatment of autism” (The Johns Hopkins University, priority 2011, dated 2015).

“Also recorded” adds a separate entry of the source.

Data set [1] deals with K562 cells. Description: Flow cytometric analysis of mitochondrial mass (Mitotracker). Type of data set: cell-based, human. The following applies: K562 cells, 1.2 mM SB or 100 μM HU; FIG. 1C. The method, then:
Fibroblasts (70-95% confluent) were treated with 5 mM 4PBA (1 mM for JNK inhibition studies), 600 μM HU, 200 nM TSA, or 5 μM SFN unless otherwise specified.
K562 cells were incubated with 50 nM Mitotracker Green FM, 300 nM Mitotracker Deep Red 633 (Invitrogen), or PBS as a negative control for 15 min at 37° C. or stained with anti-Pex14 using Caltag Fix and Perm reagents (Invitrogen) following the manufacturer's instructions. Stained cells were suspended in 0.5 mL of 1% paraformaldehyde/PBS and subjected to flow cytometric analysis (FACScan machine, Becton Dickinson, Franklin Lakes, N.J.).
K562 cells were treated with SB and HU for four to ten days. […] (n≧3 unless otherwise noted).
To determine whether the induction of mitochondrial biogenesis by SB or HU treatment was necessary for the induction of HbF-producing cell production, K562 cells were treated with SB or HU in the presence or absence of AA. […] After two to four days of drug treatment with or without AA, mitochondrial mass was measured using Mitotracker, a mitochondrial stain. Fold change (drug treated/control) is shown. […] After four days of drug treatment with or without AA, cells were stained with DAF. The relative number of cells producing HbF (DAF stained cells) were plotted. […] After eight to ten days of drug treatment, peroxisome proliferation was measured using an antibody against the peroxisomal membrane protein, PEX14 and a FITC-labeled secondary antibody. Fold change (drug treated/control) is shown. In FIGS. 1C, 1D, and 1E, the * represents a statistically significant increase in a measurement between drug treated and control samples or a statistically significant decrease in a measurement between drug treated and drug treated samples in the presence of AA (p≦0.05) (Bars=SEM). This finding indicates dependence of the beneficial effect (i.e., elevated HbF levels) on induced mitochondrial biogenesis. Thus, the therapeutic effects observed in SCD may involve the pharmacological induction of mitochondrial biogenesis by SB or HU. […]
In general terms: In flow cytometry, cells or beads pass a laser one at a time.

For data set [2], the system named is class I and class II HDAC. The data set is described as follows: Colorimetric HDAC activity assay in HeLa or fibroblast lysates. The following applies: HeLa and human fibroblast lysates; two concentrations (treatment concentration and ten times); FIG. 6A-B. It is filed as biochemical.
Description: A colorimetric HDAC activity assay was performed in triplicate using 100-200 μg of HeLa or fibroblast lysates following the manufacturer's protocol (K331; Biovision, Mountain View, Calif.).
Whether inhibition of class I and class II HDAC activities is a shared biochemical function that could account for the effects of all four small molecules was examined. Using lysates from HeLa cells and primary human fibroblasts, an in vitro colorimetric assay of HDAC activity was performed. Two concentrations of each small molecule were used. The first concentration was that used to treat primary human fibroblasts in the experiments reported herein, which minimally affects growth. The second concentration was ten times the first concentration and is lethal in cell culture. […] (* p≦0.00009; paired t-test; Bars=SEM for n≧3 independent experiments).
In data set [3] the test system is SMN protein. The data set is described as follows: Immunoblot analyses of SMN protein expression in spinal muscular atrophy fibroblasts. Type of data set: cell-based, human. As for the experimental part: Cell lysates were collected in mammalian protein extraction reagent (m-PER; Thermo Scientific, Rockford, Ill.) plus 1×protease inhibitor (Sigma-Aldrich) and 1×Halt phosphatase inhibitor (Thermo Scientific). Denatured SDS-PAGE and immunoblot analyses were performed using the following antibodies: phosphorylated JNK and β-actin from Santa Cruz Biotechnology, HSP70, HSP90, BIP, phosphorylated eIF2α, and XBP1 from Cell Signaling, APG8 (Abgent, San Diego, Calif.), and SOD2 (Stressgen, Ann Arbor, Mich.). Quantitation was performed using a Fuji Intelligent Dark box II, FUJI LAS-1000 Lite software and Image Gauge v4.22 software (Tokyo, Japan).
Spinal muscular atrophy type I (SMA I; GM09677, n=7) or type III (SMA III; 2906, n=2) fibroblasts were treated with either 1.5 mM SFN or 0.5-2 mM SFN, respectively, for 48-72 hr. The average of the relative expression of SMN protein (39 kDa) is plotted. Actin (43 kDa) was used as a loading control.
Spinal muscular atrophy type I (SMA I; GM09677) fibroblasts were treated with either […] HU (n=1) or 1.5 mM SFN (n≧3) in the presence or absence of 10 mM SP600125 (JNK inhibitor), 1 mM 3-methyladenine (APG inhibitor), 2-4 mg/ml antimycin A (MITO inhibitor) or 2 mM sirtinol (SIRT1 inhibitor) for 48 h. SMN protein expression was measured by quantitative immunoblot analyses using actin as a loading control. Fold increases in SMN protein expression are plotted and represented numerically in the table below the graph. Untreated values are normalized to 1. (*P≦0.05; bars=SEM).

In data set [4] the test system is human XALD fibroblasts. Conditions: McGuinness et al., 2003; cited from earlier work.
In data set [5] the test system is ALD (Abcd1−/Y) mouse model. The following applies: ALD (Abcd1−/Y) mouse model in vivo; McGuinness et al., 2003; cited from earlier work.
Data set [6] concerns X-linked Adrenoleukodystrophy. The following applies: McGuiness et al., 2003; cited from earlier work.
The test system of data set [7] is Cystic Fibrosis. The following applies: Choo-Kang et al., 2001, Hutt et al., 2010; cited from earlier work.
Data set [8] relates to Diabetes. Conditions: Ozcan et al., 2006, Xue et al., 2008, Sun et al.; cited from earlier work.
Data set [9] concerns Ischemia. Conditions: Qi et al., 2004, Yoon et al., 2008; cited from earlier work.
The conditions of data set [10]: human research studies; cited from earlier work.
[11] abbreviates: separate experiments, SMA I GM09677, 300 mM HU or 1.5 mM SFN, 48 h, FIG. 8D.

Consider `NC(=O)NO` [HU, hydroxyurea], for which the mitochondrial mass result in data set [1] is reported as “significantly increased”. Besides, in data set [2], the “HDAC activity compared to untreated lysates” value is on record as “neither concentration of HU nor SFN reduced”. Further, in data set [3] (setting [11]), the “SMN protein expression increase” value is on record as 1.4 fold.

Take `CC(/C=C/C(=O)NO)=C\[C@@H](C)C(=O)c1ccc(N(C)C)cc1` [TSA, trichostatin A]: in [2], the “HDAC activity compared to untreated lysates” value is “significantly decreased”. The “abnormally high levels of very long chain fatty acids (VLCFA)” value in [4] and in data set [5] was “normalized” each time. Also, the “Therapeutic Effect” value in [6] is “decrease very long chain”; in data set [7] it was “increase proper protein”.

`C[S@@+]([O-])CCCCN=C=S` [SFN, 1-isothiocyanato-4R-(methylsulfinyl)butane]: the “HDAC activity compared to untreated lysates” value in data set [2] is reported as “neither concentration of HU nor SFN reduced”. Also, the “SMN protein expression increase” value was 1.46 fold in data set [3] (setting [11]); 1.57 fold in data set [3] (spinal muscular atrophy type I fibroblasts (GM09677), 1.5 mM SFN, 48-72 hr., FIG. 8C); 1.64 fold in data set [3] (spinal muscular atrophy type III fibroblasts (2906), 0.5-2 mM SFN, 48-72 hr., FIG. 8C). The figures for the “Therapeutic Effect” value in data set [8] and in [9] were “hyperglycemia normalization; also recorded: improve glucose utilization” and “protection via antioxidant”, respectively. Further, the adverse effects entry in [10] is on record as “not shown any significant adverse effects”.

On to 4-phenylbutyrate [4PBA], for which the “HDAC activity compared to untreated lysates” value in data set [2] is “significantly decreased”. Further, the “abnormally high levels of very long chain fatty acids (VLCFA)” value in data set [4] and in data set [5] was “normalized” in each case. The “Therapeutic Effect” value in data set [6] was “decrease very long chain”; in data set [9] it was “protection via antioxidant”; in data set [7], “increase proper protein”.
